Experimental data as given in PubChem BioAssay (NCI).
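Compound exposure: 48 hours, 5 concentrations, 96-well plates. Abbreviation: GI50, concentration required for 50% inhibition of growth. At the TGI there is no net growth.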

Key:
Assay in all cases: NCI anticancer screen, dose series, 48 h
M14 melanoma = test system: M14 melanoma
OVCAR-4 ovarian = test system: OVCAR-4 ovarian
OVCAR-8 ovarian = test system: OVCAR-8 ovarian
COLO 205 colon = test system: COLO 205 colon
EKVX NSCLC = test system: EKVX NSCLC
HOP-62 NSCLC = test system: HOP-62 NSCLC
HCT-15 colon = test system: HCT-15 colon
CCRF-CEM leukemia = test system: CCRF-CEM leukemia
IGROV1 ovarian = test system: IGROV1 ovarian
MALME-3M melanoma = test system: MALME-3M melanoma

Structure (SMILES) | TGI (M14 melanoma) | TGI (OVCAR-4 ovarian) | TGI (OVCAR-8 ovarian) | TGI (COLO 205 colon) | TGI (EKVX NSCLC) | TGI (HOP-62 NSCLC) | TGI (HCT-15 colon) | TGI (CCRF-CEM leukemia) | TGI (IGROV1 ovarian) | TGI (MALME-3M melanoma) | GI50 (M14 melanoma) | GI50 (OVCAR-4 ovarian) | GI50 (OVCAR-8 ovarian) | GI50 (COLO 205 colon) | GI50 (EKVX NSCLC) | GI50 (HOP-62 NSCLC) | GI50 (HCT-15 colon) | GI50 (CCRF-CEM leukemia) | GI50 (IGROV1 ovarian) | GI50 (MALME-3M melanoma)
COc1c(OC(C)=O)cc2c(OC(C)=O)c1CC(C)CC(OC)C(O)C(C)/C=C(\C)C(OC(N)=O)C(OC)/C=C\C=C(/C)C(=O)N2 (stereo not drawn) | > 100 µM | > 100 µM | > 100 µM | > 100 µM | > 100 µM | > 100 µM | > 100 µM | 98.3 µM | > 100 µM | > 100 µM | – | – | – | – | – | – | – | – | – | –
CCOP(=O)(CCP(=O)(OCC)OCC)OCC.C[CH2][Sn]([Cl])([Cl])[CH2]C | > 57.8 µM | > 71.9 µM | > 100 µM | 50.9 µM | > 100 µM | > 100 µM | > 78.7 µM | 50.5 µM | > 100 µM | 30.6 µM | 41.4 µM | > 48.7 µM | > 100 µM | 30.4 µM | > 100 µM | > 91.3 µM | 51.2 µM | 15.5 µM | > 100 µM | 15.3 µM
CCCc1cc(=O)oc2c(C(=O)CC(C)C)c(O)c(CC=C(C)C)c(O)c12 | > 50 µM | > 50 µM | > 50 µM | 21.5 µM | > 50 µM | > 50 µM | > 50 µM | > 50 µM | > 50 µM | 32.4 µM | 10.3 µM | 10.7 µM | 12 µM | 10.6 µM | 9.22 µM | 17.6 µM | 5.81 µM | 4.97 µM | 15.4 µM | 9.89 µM
CCCOc1ccc(/C(Cl)=C(\C=O)c2ccc(OC)c(OC)c2)cc1OCCC | > 100 µM | > 100 µM | > 100 µM | 14.6 µM | 50.4 µM | > 100 µM | 32.8 µM | > 100 µM | > 100 µM | 38.8 µM | – | – | – | – | – | – | – | – | – | –
COC1=C(OC)C(=O)C(/C=C(\C)C(=O)O)=C(C)C1=O | > 100 µM | > 100 µM | > 100 µM | > 100 µM | > 100 µM | > 100 µM | > 100 µM | > 100 µM | > 100 µM | > 100 µM | > 100 µM | > 100 µM | > 100 µM | > 100 µM | > 100 µM | > 100 µM | > 100 µM | 67 µM | > 100 µM | > 100 µM
COc1cccc(Nc2nc(NNC(=O)Cc3ccccc3)nc(NNC(=O)c3ccncc3)n2)c1 | > 100 µM | > 100 µM | > 100 µM | > 100 µM | > 100 µM | > 100 µM | > 100 µM | > 100 µM | > 100 µM | > 100 µM | – | > 100 µM | > 100 µM | > 100 µM | > 100 µM | > 100 µM | > 100 µM | > 100 µM | > 100 µM | > 100 µM
COc1ccc2c(=O)c([Se]c3coc4cc(OC)ccc4c3=O)coc2c1 | 37.5 µM | > 100 µM | > 100 µM | > 100 µM | > 100 µM | > 100 µM | > 100 µM | > 100 µM | > 100 µM | > 100 µM | – | – | – | – | – | – | – | – | – | –
O=c1[nH]c(=S)[nH]c2c1sc(=S)n2-c1ccccc1 | > 100 µM | > 100 µM | > 100 µM | > 100 µM | > 100 µM | > 100 µM | > 100 µM | > 100 µM | > 100 µM | > 100 µM | – | – | – | – | – | – | – | – | – | –
CCCCCCN(CCCCCC)CCCNc1nccc2ccccc12 | 2.89 µM | 7.72 µM | 3.19 µM | 3.07 µM | 11.8 µM | 3.41 µM | 3.21 µM | 10.7 µM | 4.75 µM | 3.91 µM | 1.42 µM | 2.09 µM | 1.67 µM | 1.48 µM | 2.65 µM | 1.46 µM | 1.41 µM | 2.47 µM | 1.89 µM | 1.94 µM
OC(c1ccccc1)(c1ccccc1)c1ccccn1 | > 100 µM | > 100 µM | > 100 µM | > 100 µM | > 100 µM | > 100 µM | > 100 µM | > 100 µM | > 100 µM | > 100 µM | – | – | – | – | – | – | – | – | – | –
O=C(Oc1cccnc1)c1ccccc1Nc1ccnc(C(F)(F)F)c1 | 3.11 µM | > 100 µM | > 100 µM | 0.363 µM | 46.4 µM | 0.214 µM | > 100 µM | > 100 µM | > 100 µM | > 100 µM | 0.0536 µM | 0.207 µM | 0.413 µM | 0.156 µM | 6.15 µM | 0.0473 µM | 0.121 µM | 0.0334 µM | 21.7 µM | 33.1 µM
C[N+](C)(C)CCOP(=O)(O)OP(=O)([O-])OCC1CCC(n2ccc(N)nc2=O)O1 (stereo not drawn) | > 100 µM | > 100 µM | > 100 µM | > 100 µM | > 100 µM | > 100 µM | > 100 µM | > 100 µM | > 100 µM | > 100 µM | – | – | – | – | – | – | – | – | – | –
CC(=O)OC1(C#N)CC2OC1C1C2N1C(=O)c1ccccc1 (stereo not drawn) | > 100 µM | > 100 µM | > 100 µM | > 100 µM | > 100 µM | > 100 µM | > 100 µM | > 100 µM | > 100 µM | > 100 µM | – | – | – | – | – | – | – | – | – | –
O=C1C2=C(C(=O)c3c(O)ccc(O)c31)N(c1ccc(N3CCOCC3)nc1)Cc1ccccc1O2 | 0.894 µM | 1.05 µM | 12.3 µM | 0.318 µM | 1.67 µM | 3.97 µM | 0.622 µM | – | 1.14 µM | 0.418 µM | 0.276 µM | 0.282 µM | 0.35 µM | 0.137 µM | 0.27 µM | 1.52 µM | 0.205 µM | 0.0778 µM | 0.277 µM | 0.134 µM
COC(=O)CCC(NC(=S)N/N=C(\C)c1ccccn1)C(=O)OC (stereo not drawn) | > 100 µM | > 100 µM | > 100 µM | > 100 µM | > 100 µM | > 100 µM | > 100 µM | > 100 µM | > 100 µM | > 100 µM | – | – | – | – | – | – | – | – | – | –
CCOC(=O)CC(=O)ON(C)C(=O)Cc1ccccc1 | > 100 µM | > 100 µM | > 100 µM | > 100 µM | > 100 µM | > 100 µM | > 100 µM | > 100 µM | > 100 µM | > 100 µM | – | – | – | – | – | – | – | – | – | –
